According to US20260242388A1, “NBD1 MODULATORS AND METHODS OF USING THE SAME” (Sionna Therapeutics Inc., priority 2023, published 2026):

Test system: NBD1
Test: Aggregation analysis using differential static light scattering (DSLS), thermal stability of NBD1
Assay type: binding, Human
Settings: 100 μM compound; ΔTagg = Tagg minus average Tagg of DMSO control wells; NBD1 0.2 mg/ml
Description: Example 23. Aggregation Analysis Using Differential Static Light Scattering (DSLS)
Purified recombinant NBD1 was produced using previously described methods (A. Schmidt, J. L. Mendoza, P. J. Thomas (2011) Biochemical and Biophysical Approaches to Probe CFTR Structure (365-376) M. D. Amaral, K. Kunzelmann (eds.), Cystic Fibrosis, Methods in Molecular Biology 741, Springer Science+Business Media). The effect of test compounds on thermal stability of NBD1 was evaluated by differential static light scattering (DSLS) using the Harbinger Stargazer-384 instrument (Epiphyte Three, Toronto, Canada). Test compounds were dissolved and diluted to desired concentrations in 100% DMSO. The compounds or DMSO controls (100 nL) were stamped into wells of a […] low volume optical plate (Corning Inc., Corning, NY) using the Echo 555 acoustic liquid handler (Labcyte Inc., San Jose, CA).
NBD1 protein was diluted to 0.2 mg/ml in S200 buffer (50 mM Tris-HCl, 150 mM NaCl, 5 mM MgCl2, 2 mM ATP, 2 mM DTT, pH7.6) containing 1% glycerol. 10 μL of protein solution was aliquoted into the 384-well plate harboring the test compounds and 10 μL mineral oil was overlayed onto the protein solution, using the epMotion robotic liquid handler (Eppendorf North America, Hauppauge, NY). After placing into the Stargazer instrument, the plate was heated at 1° C. per minute to 70° C. Images were captured from 25° C. to 70° C. every 0.5° C. At the end of the experiment run, instrument software integrated image files and analyzed data automatically. A linear regression curve was generated for each well, representing the increase in light scattering over time. A temperature of aggregation (Tagg) was calculated based on the inflection point of the curve. To better compare data across experiments the average Tagg for DMSO control wells was calculated and subtracted from values for wells containing compounds to obtain a “ΔTagg” value. These ΔTagg values reflect stabilizing efficacy of the compounds.

| Compound | DSLS NBD1/3D Human Stability delta-T (° C.) @ 100 (μM) |
| --- | --- |
| CCOC(=O)CCc1cccc(C2c3nc(-c4cc(Oc5c(F)cc6[nH]ccc6c5S(C)(=O)=O)ccc4F)[nH]c3CCN2C)c1F (stereo not shown) [Example 13, ethyl 3-[2-fluoro-3-[2-[2-fluoro-5-[(6-fluoro-4-methylsulfonyl-1H-indol-5-yl)oxy]phenyl]-5-methyl-1,4,6,7-tetrahydroimidazo[4,5-c]pyridin-4-yl]phenyl]propanoate] | B (4-8° C.) |
| CN1CCc2[nH]c(-c3cc(Oc4c(F)cc5[nH]ccc5c4S(C)(=O)=O)ccc3F)nc2C1c1cccc(CCC(=O)O)c1F (stereo not shown) [Example 14, 3-[2-fluoro-3-[2-[2-fluoro-5-[(6-fluoro-4-methylsulfonyl-1H-indol-5-yl)oxy]phenyl]-5-methyl-1,4,6,7-tetrahydroimidazo[4,5-c]pyridin-4-yl]phenyl]propanoic acid] | A (T ≥ 8° C.) |
| Cc1c(-c2cc(Oc3c(F)cc4[nH]ccc4c3F)ccc2F)nc2n1CCNC2c1cccc(CC(O)CO)c1F (stereo not shown) [Example 9, 3-[3-[2-[5-[(4,6-difluoro-1H-indol-5-yl)oxy]-2-fluoro-phenyl]-3-methyl-5,6,7,8-tetrahydroimidazo[1,2-a]pyrazin-8-yl]-2-fluoro-phenyl]propane-1,2-diol] | B (4-8° C.) |
| CCOC(=O)C(C)Cc1cccc(C2NCCn3c2nc(-c2cc(Oc4c(F)cc5[nH]ccc5c4F)ccc2F)c3C)c1F (stereo not shown) [Example 10, ethyl 3-[3-[2-[5-[(4,6-difluoro-1H-indol-5-yl)oxy]-2-fluoro-phenyl]-3-methyl-5,6,7,8-tetrahydroimidazo[1,2-a]pyrazin-8-yl]-2-fluoro-phenyl]-2-methyl-propanoate] | C (≤4° C.) |
| CNC(=O)CCc1cccc(C2c3nc(-c4cc(Oc5c(F)cc6[nH]ccc6c5S(C)(=O)=O)ccc4F)[nH]c3CCN2CC(F)F)c1F (stereo not shown) [Example 17, 3-[3-[5-(2,2-difluoroethyl)-2-[2-fluoro-5-[(6-fluoro-4-methylsulfonyl-1H-indol-5-yl)oxy]phenyl]-1,4,6,7-tetrahydroimidazo[4,5-c]pyridin-4-yl]-2-fluoro-phenyl]-N-methyl-propanamide] | B (4-8° C.) |
| CN1CCc2nc(-c3cc(Oc4c(F)cc5[nH]ccc5c4F)ccc3F)[nH]c2[C@H]1c1cccc(CCC(=O)O)c1F (single isomer, unassigned) [Example 5] | B (4-8° C.) |
| CN1CCc2[nH]c(-c3cc(Oc4c(F)cc5[nH]ccc5c4F)ccc3F)nc2C1c1cccc(CC(O)CO)c1F (stereo not shown) [Example 20, 3-[3-[2-[5-[(4,6-difluoro-1H-indol-5-yl)oxy]-2-fluoro-phenyl]-5-methyl-1,4,6,7-tetrahydroimidazo[4,5-c]pyridin-4-yl]-2-fluoro-phenyl]propane-1,2-diol] | B (4-8° C.) |
| O=C(O)Cc1cccc(C2OCCc3[nH]c(-c4cc(Oc5c(F)cc6[nH]ccc6c5F)ccc4F)nc32)c1 (stereo not shown) [Example 2, 2-(3-(2-(5-((4,6-difluoro-1H-indol-5-yl)oxy)-2-fluorophenyl)-1,4,6,7-tetrahydropyrano[3,4-d]imidazol-4-yl)phenyl)acetic acid] | B (4-8° C.) |
| CN1CCc2nc(-c3cc(Oc4c(F)cc5[nH]ccc5c4F)ccc3F)[nH]c2[C@@H]1c1cccc(CCC(=O)O)c1F (single isomer, unassigned) [Example 6] | A (T ≥ 8° C.) |
| CS(=O)(=O)c1c(Oc2ccc(F)c(-c3nc4c([nH]3)CCN(CC(F)F)C4c3cccc(CCC(=O)O)c3F)c2)c(F)cc2[nH]ccc12 (stereo not shown) [Example 16, 3-[3-[5-(2,2-difluoroethyl)-2-[2-fluoro-5-[(6-fluoro-4-methylsulfonyl-1H-indol-5-yl)oxy]phenyl]-1,4,6,7-tetrahydroimidazo[4,5-c]pyridin-4-yl]-2-fluoro-phenyl]propanoic acid] | A (T ≥ 8° C.) |
| CN1CCc2[nH]c(-c3cc(Oc4c(F)cc5[nH]ccc5c4S(C)(=O)=O)ccc3F)nc2C1c1cccc(CC(O)CO)c1F (stereo not shown) [Example 21, 3-[2-fluoro-3-[2-[2-fluoro-5-[(6-fluoro-4-methylsulfonyl-1H-indol-5-yl)oxy]phenyl]-5-methyl-1,4,6,7-tetrahydroimidazo[4,5-c]pyridin-4-yl]phenyl]propane-1,2-diol] | A (T ≥ 8° C.) |
| CCOC(=O)CCc1ccc(C2c3nc(-c4cc(Oc5c(F)cc6[nH]ccc6c5S(C)(=O)=O)ccc4F)[nH]c3CCN2C)s1 (stereo not shown) [Example 18, ethyl 3-[5-[2-[2-fluoro-5-[(6-fluoro-4-methylsulfonyl-1H-indol-5-yl)oxy]phenyl]-5-methyl-1,4,6,7-tetrahydroimidazo[4,5-c]pyridin-4-yl]-2-thienyl]propanoate] | B (4-8° C.) |
| CN1CCc2[nH]c(-c3cc(Oc4c(F)cc5[nH]ccc5c4S(C)(=O)=O)ccc3F)nc2C1c1ccc(CCC(=O)O)s1 (stereo not shown) [Example 19, 3-[5-[2-[2-fluoro-5-[(6-fluoro-4-methylsulfonyl-1H-indol-5-yl)oxy]phenyl]-5-methyl-1,4,6,7-tetrahydroimidazo[4,5-c]pyridin-4-yl]-2-thienyl]propanoic acid] | A (T ≥ 8° C.) |
| O=C(O)CCc1cccc([C@@H]2NCCc3nc(-c4cc(Oc5c(F)cc6[nH]ccc6c5F)ccc4F)[nH]c32)c1F (single isomer, unassigned) [Example 4] | C (≤4° C.) |
| CC(Cc1cccc(C2c3nc(-c4cc(Oc5c(F)cc6[nH]ccc6c5S(C)(=O)=O)ccc4F)[nH]c3CCN2C)c1F)C(=O)O (stereo not shown) [Example 7, 3-[2-fluoro-3-[2-[2-fluoro-5-[(6-fluoro-4-methylsulfonyl-1H-indol-5-yl)oxy]phenyl]-5-methyl-1,4,6,7-tetrahydroimidazo[4,5-c]pyridin-4-yl]phenyl]-2-methyl-propanoic acid] | A (T ≥ 8° C.) |
| CCOC(=O)CCc1cccc(C2c3nc(-c4cc(Oc5c(F)cc6[nH]ccc6c5S(C)(=O)=O)ccc4F)[nH]c3CCN2CC(F)F)c1F (stereo not shown) [Example 15, ethyl 3-[3-[5-(2,2-difluoroethyl)-2-[2-fluoro-5-[(6-fluoro-4-methylsulfonyl-1H-indol-5-yl)oxy]phenyl]-1,4,6,7-tetrahydroimidazo[4,5-c]pyridin-4-yl]-2-fluoro-phenyl]propanoate] | C (≤4° C.) |
